We go through eight molecules from US11939402B2, “Antifungal peptides, compounds including the same, and methods of use thereof” (priority 2022, dated 2024).

Assay [1] concerns C. neoformans wild type strain H99. The assay is described as follows: microbe, parasite or virus in culture. The format is cell-based, Cryptococcus neoformans. The settings on record: alone; for MIC ug/mL H99: wild-type H99, read at 24 and 48 hours, 37° C. The protocol:
The assays followed standard CLSI protocol for broth microdilution assays using yeasts.(32) Microbes were passaged in YPD media at 37° C. with mixing for 2 days before harvesting with an inoculation loop to prepare monocultures on Sabouraud Dextrose Agar (SDA) plates. Monocultures on SDA plates were incubated for 2 days at 37° C. before harvesting cells for microdilution assays. RPMI media (100 μL) was charged to each of the 96 wells in a 96 well plate, with an additional 100 μL in the first column. […] The 100 μL was serially diluted by a factor of 2 from the first column to the 11th column. Microbe inoculant was then prepared. An inoculation loop was used to transfer 1-3 colonies of cells to 1 mL phosphate buffer solution (PBS). The PBS and microbe solution was made uniform by vortex mixing. Cell concentration was computed by comparing the absorbance at 530 nm to 1× McFarland standard solution and multiplying the resulting ratio by 10^7 cell/mL conversion factor. Plate inoculant was prepared by diluting the PBS microbe solution to 5000 cell/mL, in RPMI media. A 100 μL aliquot of cells was transferred to each of the wells on the plate other than column 11 for the no growth control. The operating volume was 200 μL, with 500 CFU per well for a final concentration of 2.5*10^3 cells/mL.

Assay [2] relates to C. neoformans cdc50Δ mutant strain. The format is cell-based, Cryptococcus neoformans. The settings on record: alone. The protocol: The assays followed standard CLSI protocol for broth microdilution assays using yeasts.(32) Microbes were passaged in YPD media at 37° C. with mixing for 2 days before harvesting with an inoculation loop to prepare monocultures on Sabouraud Dextrose Agar (SDA) plates. Monocultures on SDA plates were incubated for 2 days at 37° C. before harvesting cells for microdilution assays. RPMI media (100 μL) was charged to each of the 96 wells in a 96 well plate, with an additional 100 μL in the first column. Peptide-DMSO solution (4 μL) at 12.8 mg/mL was charged to each of the wells in the first column. The 100 μL was serially diluted by a factor of 2 from the first column to the 11th column. Microbe inoculant was then prepared. An inoculation loop was used to transfer 1-3 colonies of cells to 1 mL phosphate buffer solution (PBS). The PBS and microbe solution was made uniform by vortex mixing. Cell concentration was computed by comparing the absorbance at 530 nm to 1× McFarland standard solution and multiplying the resulting ratio by 10^7 cell/mL conversion factor. Plate inoculant was prepared by diluting the PBS microbe solution to 5000 cell/mL, in RPMI media. A 100 μL aliquot of cells was transferred to each of the wells on the plate other than column 11 for the no growth control. The operating volume was 200 μL, with 500 CFU per well for a final concentration of 2.5*10^3 cells/mL.

Assay [3] deals with C. neoformans wild type strain H99. The settings on record: concentration of the peptide in combination with caspofungin; H99.
Experimental: Microbes were prepared in the same manner as the MIC assay. […] 100 μL of RPMI media was added to the first 8 wells in the first row. […] The 100 μL of media with drug was serially diluted from the first row to the final row. […] Column 11 was the no growth control, and 12 was the no drug control. The plate was inoculated with microbes in the same manner as the MIC assay. Again, 200 uL was the operating volume, 500 CFU per well, 2.5*10^3 cell/mL. Plates were incubated for 48 hours at 37° C. and read thereafter. The Fractional Inhibitory Concentration Index were calculated as follows:
Where the MICA and MICB are the MIC values of drugs A and B alone and FICA and FICB are the Fractional Inhibitory concentrations of drugs A and B in the presence of each other, respectively.
In assay [4] the test system is C. neoformans cdc50Δ mutant strain. The format is cell-based, Cryptococcus neoformans. The settings on record: for FIC ug/mL ΔCDC50 Peptide: concentration of the peptide in combination with caspofungin; for FIC Index ΔCDC50: peptide with caspofungin, ΔCDC50 (table S1). On the procedure:
The Fractional Inhibitory Concentration Index were calculated as follows: […]

In brackets after ≈: the same amount, converted by molar mass. Where a SMILES comes first, the peptide text is derived from it. The star is where a group is joined. Palmitoyl = CCCCCCCCCCCCCCCC(=O)*; Myristoyl = CCCCCCCCCCCCCC(=O)*; Decanoyl = CCCCCCCCCC(=O)*; Hexanoyl = CCCCCC(=O)* A value given as a limit tells only on which side of the number the result lay.

For the molecule `CCCCCCCCCCCCCC(=O)N[C@@H](CO)C(=O)NCC(=O)N[C@H](C(=O)N[C@@H](C)C(=O)N[C@@H](Cc1c[nH]c2ccccc12)C(=O)NCC(=O)NCC(=O)N[C@H](C(=O)N[C@@H](CCCCN)C(=O)O)[C@@H](C)CC)[C@@H](C)CC` [KS9-Ma] (Myristoyl-SGIAWGGIK-OH), the “MIC ug/mL H99” value in assay [1] is above 128 µg/mL. In assay [2], the “MIC ug/mL ΔCDC50” value was above 128 µg/mL.
As to `CCCCCC(=O)N[C@@H](CO)C(=O)N[C@@H](CCC(=O)O)C(=O)N[C@@H](CO)C(=O)NCC(=O)N[C@H](C(=O)N[C@@H](C)C(=O)N[C@@H](Cc1c[nH]c2ccccc12)C(=O)NCC(=O)NCC(=O)N[C@H](C(=O)N[C@@H](CCCCN)C(=O)N[C@@H](CCCCN)C(=O)N[C@@H](CC(N)=O)C(=O)N[C@@H](Cc1ccc(O)cc1)C(=O)N[C@@H](C)C(=O)O)[C@@H](C)CC)[C@@H](C)CC` [AS15-Ha] (Hexanoyl-SESGIAWGGIKKNYA-OH), the “MIC ug/mL H99” value in assay [1] was above 128 µg/mL. Also, the “MIC ug/mL ΔCDC50” value in assay [2] was above 128 µg/mL.
In the case of H-YVDGFPNLREDEHFQ-OH [QY15], in assay [3], the “FIC ug/mL H99 Peptide” value is 0.5 µg/mL. For the same molecule, in assay [1], the “MIC ug/mL H99” value was above 128 µg/mL. Moreover, in assay [4], the “FIC ug/mL ΔCDC50 Peptide” value stood at 0.5 µg/mL and the “FIC Index ΔCDC50” value is listed as 0.5-1. The “MIC ug/mL ΔCDC50” value in assay [2] was above 128 µg/mL.
Consider `CCCCCCCCCCCCCCCC(=O)N[C@@H](CO)C(=O)N[C@@H](CCC(=O)O)C(=O)N[C@@H](CO)C(=O)NCC(=O)N[C@H](C(=O)N[C@@H](C)C(=O)N[C@@H](Cc1c[nH]c2ccccc12)C(=O)NCC(=O)NCC(=O)N[C@H](C(=O)N[C@@H](CCCCN)C(=O)N[C@@H](CCCCN)C(=O)N[C@@H](CC(N)=O)C(=O)N[C@@H](Cc1ccc(O)cc1)C(=O)N[C@@H](C)C(=O)O)[C@@H](C)CC)[C@@H](C)CC` [AS15-Pa] (Palmitoyl-SESGIAWGGIKKNYA-OH), for which the “FIC ug/mL H99 Peptide” value in assay [3] is 0.5 µg/mL. In addition, the “MIC ug/mL H99” value in assay [1] is above 128 µg/mL. Moreover, in assay [4], the “FIC ug/mL ΔCDC50 Peptide” value amounted to 2 µg/mL and the “FIC Index ΔCDC50” value is listed as 0.53. Further, the “MIC ug/mL ΔCDC50” value in assay [2] was 128 µg/mL (≈ 70.4 µM).
Regarding `CCCCCCCCCC(=O)N[C@@H](CO)C(=O)N[C@@H](CCC(=O)O)C(=O)N[C@@H](CO)C(=O)NCC(=O)N[C@H](C(=O)N[C@@H](C)C(=O)N[C@@H](Cc1c[nH]c2ccccc12)C(=O)NCC(=O)NCC(=O)N[C@H](C(=O)N[C@@H](CCCCN)C(=O)N[C@@H](CCCCN)C(=O)N[C@@H](CC(N)=O)C(=O)N[C@@H](Cc1ccc(O)cc1)C(=O)N[C@@H](C)C(=O)O)[C@@H](C)CC)[C@@H](C)CC` [AS15-Da] (Decanoyl-SESGIAWGGIKKNYA-OH), the “MIC ug/mL H99” value in assay [1] was above 128 µg/mL. In addition, the “MIC ug/mL ΔCDC50” value in assay [2] was above 128 µg/mL.
Turning to Ac-SESGIAWGGIKKNYA-OH [AS15-Aa], the “MIC ug/mL H99” value in assay [1] was above 128 µg/mL. In assay [2], the “MIC ug/mL ΔCDC50” value was above 128 µg/mL.
In the case of `CCCCCCCCCCCCCCCC(=O)N[C@@H](Cc1c[nH]c2ccccc12)C(=O)NCC(=O)NCC(=O)N[C@H](C(=O)N[C@@H](CCCCN)C(=O)N[C@@H](CCCCN)C(=O)N[C@@H](CC(N)=O)C(=O)N[C@@H](Cc1ccc(O)cc1)C(=O)N[C@@H](C)C(=O)O)[C@@H](C)CC` [AW9-Pa] (Palmitoyl-WGGIKKNYA-OH), the “FIC ug/mL H99 Peptide” value in assay [3] is 0.5 µg/mL. In addition, the “FIC ug/mL ΔCDC50 Peptide” value in assay [4] amounted to 1 µg/mL.
With `CCCCCCCCCCCCCC(=O)N[C@@H](Cc1c[nH]c2ccccc12)C(=O)NCC(=O)NCC(=O)N[C@H](C(=O)N[C@@H](CCCCN)C(=O)N[C@@H](C)C(=O)N[C@@H](CC(N)=O)C(=O)N[C@@H](Cc1ccc(O)cc1)C(=O)N[C@@H](C)C(=O)O)[C@@H](C)CC` [Peptide K6A-Ma] (Myristoyl-WGGIKANYA-OH), in assay [1] (against C. neoformans H99 wild type), the “MIC” value was above 128 µg/mL.
